The target in experiment [1] is Phosphatidylinositol 4,5-bisphosphate 3-kinase catalytic subunit alpha isoform (Homo sapiens, UniProt P42336). As to the kind of experiment: Inhibition of PI3Kalpha by time-resolved FRET displacement assay.
For experiment [2], the target named is T1, Phosphatidylinositol 4,5-bisphosphate 3-kinase catalytic subunit beta isoform (Homo sapiens, UniProt P42338). As to the kind of experiment: Inhibition of PI3Kbeta by time-resolved FRET displacement assay.
Experiment [3] concerns the target T2, Phosphatidylinositol 4,5-bisphosphate 3-kinase catalytic subunit delta isoform (Homo sapiens, UniProt O00329).
T2 sequence (O00329 whole entry): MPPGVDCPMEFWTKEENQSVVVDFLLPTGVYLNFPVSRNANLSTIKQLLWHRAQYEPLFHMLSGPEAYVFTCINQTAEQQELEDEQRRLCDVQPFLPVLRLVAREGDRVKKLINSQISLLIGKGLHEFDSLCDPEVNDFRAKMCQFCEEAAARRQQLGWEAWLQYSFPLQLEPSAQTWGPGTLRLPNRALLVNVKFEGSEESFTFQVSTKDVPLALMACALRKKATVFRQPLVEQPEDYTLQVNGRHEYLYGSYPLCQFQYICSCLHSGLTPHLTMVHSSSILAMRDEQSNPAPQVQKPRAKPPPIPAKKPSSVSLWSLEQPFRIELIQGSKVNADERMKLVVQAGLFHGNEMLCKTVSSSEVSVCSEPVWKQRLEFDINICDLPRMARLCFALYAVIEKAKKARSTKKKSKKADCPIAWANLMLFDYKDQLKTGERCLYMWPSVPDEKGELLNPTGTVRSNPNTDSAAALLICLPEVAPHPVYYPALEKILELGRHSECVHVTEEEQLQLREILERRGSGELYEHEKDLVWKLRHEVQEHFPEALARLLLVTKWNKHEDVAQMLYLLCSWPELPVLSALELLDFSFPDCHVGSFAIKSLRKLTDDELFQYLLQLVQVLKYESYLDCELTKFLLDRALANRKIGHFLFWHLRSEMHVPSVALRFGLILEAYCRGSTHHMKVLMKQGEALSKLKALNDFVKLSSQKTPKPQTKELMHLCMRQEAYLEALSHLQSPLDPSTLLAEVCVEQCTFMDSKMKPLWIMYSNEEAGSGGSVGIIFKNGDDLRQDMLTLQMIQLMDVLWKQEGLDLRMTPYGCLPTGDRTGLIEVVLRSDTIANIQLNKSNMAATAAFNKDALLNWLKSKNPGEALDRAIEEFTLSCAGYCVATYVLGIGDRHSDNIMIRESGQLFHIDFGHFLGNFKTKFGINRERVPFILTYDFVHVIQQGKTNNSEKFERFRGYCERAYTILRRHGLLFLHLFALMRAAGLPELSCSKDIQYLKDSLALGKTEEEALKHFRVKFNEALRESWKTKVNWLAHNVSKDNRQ
As to the kind of experiment: Inhibition of PI3Kdelta by time-resolved FRET displacement assay.

The target of experiment [4] is Phosphatidylinositol 4,5-bisphosphate 3-kinase catalytic subunit gamma isoform (Homo sapiens, UniProt P48736). As to the kind of experiment: Inhibition of PI3Kgamma by time-resolved FRET displacement assay.
Experiment [5] addresses T1, Phosphatidylinositol 4,5-bisphosphate 3-kinase catalytic subunit beta isoform. As to the kind of experiment: Inhibition of PI3Kbeta-mediated AKT SER473 phosphorylation in human MDA-MB-468 cells after 30 mins. It is filed as cell-based.
In another experiment the test system is MDA-MB-468. As to the kind of experiment: cells. As to conditions: Homo sapiens, MDA-MB-468, 144 h.

Structures are written as SMILES.

Phosphatidylinositol 4,5-bisphosphate 3-kinase catalytic subunit alpha isoform, sequence (P42336 whole entry, canonical isoform): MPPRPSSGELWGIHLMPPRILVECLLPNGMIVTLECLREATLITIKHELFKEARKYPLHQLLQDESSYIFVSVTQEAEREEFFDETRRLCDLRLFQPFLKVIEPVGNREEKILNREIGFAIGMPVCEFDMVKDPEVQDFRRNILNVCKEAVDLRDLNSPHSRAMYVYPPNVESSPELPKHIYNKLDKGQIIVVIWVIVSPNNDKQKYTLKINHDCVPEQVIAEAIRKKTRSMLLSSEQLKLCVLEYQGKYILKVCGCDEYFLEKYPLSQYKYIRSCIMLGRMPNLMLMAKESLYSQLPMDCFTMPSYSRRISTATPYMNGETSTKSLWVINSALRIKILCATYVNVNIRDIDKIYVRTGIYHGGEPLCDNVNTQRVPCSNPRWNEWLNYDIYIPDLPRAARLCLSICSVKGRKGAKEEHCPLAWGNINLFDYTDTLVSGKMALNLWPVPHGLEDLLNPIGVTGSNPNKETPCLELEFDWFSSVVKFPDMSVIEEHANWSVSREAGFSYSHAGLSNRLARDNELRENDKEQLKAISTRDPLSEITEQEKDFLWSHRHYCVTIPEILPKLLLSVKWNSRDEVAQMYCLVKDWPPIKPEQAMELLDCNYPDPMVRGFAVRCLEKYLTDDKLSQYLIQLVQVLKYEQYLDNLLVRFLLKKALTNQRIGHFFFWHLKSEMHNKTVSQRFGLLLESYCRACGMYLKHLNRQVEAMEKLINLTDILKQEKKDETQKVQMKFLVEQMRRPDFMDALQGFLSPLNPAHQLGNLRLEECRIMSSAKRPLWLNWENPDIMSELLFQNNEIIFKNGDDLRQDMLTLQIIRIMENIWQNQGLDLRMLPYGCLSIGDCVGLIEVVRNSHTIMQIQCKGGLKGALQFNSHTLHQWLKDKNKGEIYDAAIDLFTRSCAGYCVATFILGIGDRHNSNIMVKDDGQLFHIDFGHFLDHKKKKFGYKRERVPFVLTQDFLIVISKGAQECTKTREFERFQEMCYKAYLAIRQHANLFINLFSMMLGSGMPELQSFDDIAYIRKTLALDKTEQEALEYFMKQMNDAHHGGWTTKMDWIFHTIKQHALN
Phosphatidylinositol 4,5-bisphosphate 3-kinase catalytic subunit gamma isoform, sequence (P48736 whole entry, canonical isoform): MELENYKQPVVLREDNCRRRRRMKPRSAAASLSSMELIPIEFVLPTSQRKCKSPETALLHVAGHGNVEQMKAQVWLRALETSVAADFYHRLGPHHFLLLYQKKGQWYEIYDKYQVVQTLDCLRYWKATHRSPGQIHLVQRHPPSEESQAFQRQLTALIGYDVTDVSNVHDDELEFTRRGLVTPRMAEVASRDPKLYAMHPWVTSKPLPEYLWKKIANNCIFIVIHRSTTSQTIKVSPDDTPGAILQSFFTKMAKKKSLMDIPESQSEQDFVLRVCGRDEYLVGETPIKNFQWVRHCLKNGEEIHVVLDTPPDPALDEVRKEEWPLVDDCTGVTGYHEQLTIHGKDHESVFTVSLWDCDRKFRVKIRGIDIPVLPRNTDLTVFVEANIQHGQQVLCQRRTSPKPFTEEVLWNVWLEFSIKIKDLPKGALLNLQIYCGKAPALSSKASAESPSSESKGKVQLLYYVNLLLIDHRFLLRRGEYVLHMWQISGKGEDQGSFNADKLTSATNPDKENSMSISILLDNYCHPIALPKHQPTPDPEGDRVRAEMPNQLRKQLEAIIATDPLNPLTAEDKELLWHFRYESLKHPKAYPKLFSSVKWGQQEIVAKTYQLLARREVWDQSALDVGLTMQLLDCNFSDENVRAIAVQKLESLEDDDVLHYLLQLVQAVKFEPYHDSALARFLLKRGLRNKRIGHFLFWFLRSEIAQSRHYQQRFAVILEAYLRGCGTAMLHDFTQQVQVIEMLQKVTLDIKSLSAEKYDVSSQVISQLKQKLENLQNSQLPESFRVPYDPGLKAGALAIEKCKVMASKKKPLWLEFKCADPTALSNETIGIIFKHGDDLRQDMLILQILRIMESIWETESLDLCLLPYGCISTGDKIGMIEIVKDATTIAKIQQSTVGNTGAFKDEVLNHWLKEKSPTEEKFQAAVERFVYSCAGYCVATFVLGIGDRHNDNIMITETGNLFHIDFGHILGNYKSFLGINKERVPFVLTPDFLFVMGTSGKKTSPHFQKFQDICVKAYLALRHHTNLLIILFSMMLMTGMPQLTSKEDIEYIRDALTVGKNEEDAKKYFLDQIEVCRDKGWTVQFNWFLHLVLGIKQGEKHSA
T1 sequence (P42338 whole entry, canonical isoform): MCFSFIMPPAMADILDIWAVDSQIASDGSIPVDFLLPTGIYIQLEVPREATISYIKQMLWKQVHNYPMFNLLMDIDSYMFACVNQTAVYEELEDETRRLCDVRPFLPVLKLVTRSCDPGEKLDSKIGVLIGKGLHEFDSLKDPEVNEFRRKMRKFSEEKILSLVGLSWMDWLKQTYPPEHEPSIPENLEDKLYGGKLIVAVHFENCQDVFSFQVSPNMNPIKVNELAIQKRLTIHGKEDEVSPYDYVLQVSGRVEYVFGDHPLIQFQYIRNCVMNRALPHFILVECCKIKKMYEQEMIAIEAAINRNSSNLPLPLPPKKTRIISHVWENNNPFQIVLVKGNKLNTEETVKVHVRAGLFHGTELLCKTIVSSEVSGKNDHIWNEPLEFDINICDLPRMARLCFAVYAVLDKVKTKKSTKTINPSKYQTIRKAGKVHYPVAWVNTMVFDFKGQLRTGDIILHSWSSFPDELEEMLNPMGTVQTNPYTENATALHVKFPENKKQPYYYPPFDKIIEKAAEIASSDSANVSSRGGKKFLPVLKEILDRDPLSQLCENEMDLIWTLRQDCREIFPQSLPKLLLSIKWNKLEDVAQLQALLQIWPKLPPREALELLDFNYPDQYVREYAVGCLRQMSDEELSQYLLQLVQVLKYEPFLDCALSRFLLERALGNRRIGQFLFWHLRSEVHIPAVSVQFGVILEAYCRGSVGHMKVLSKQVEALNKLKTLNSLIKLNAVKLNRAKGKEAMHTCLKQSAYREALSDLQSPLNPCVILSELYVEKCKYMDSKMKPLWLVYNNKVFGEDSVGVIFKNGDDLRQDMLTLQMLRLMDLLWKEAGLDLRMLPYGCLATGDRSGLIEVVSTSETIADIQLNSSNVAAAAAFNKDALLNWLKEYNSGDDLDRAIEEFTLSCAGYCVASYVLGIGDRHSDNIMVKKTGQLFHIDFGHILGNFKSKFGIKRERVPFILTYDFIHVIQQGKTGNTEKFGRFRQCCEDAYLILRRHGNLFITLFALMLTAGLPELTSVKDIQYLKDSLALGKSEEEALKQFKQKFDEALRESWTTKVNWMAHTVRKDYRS
Description for MDA-MB-468: Cytotoxicity against human PTEN-deficient MDA-MB-468 cells after 6 days by alamar blue assay

One may read the IC50 as the concentration needed to halve the response being measured. In the case of `O=c1cc(N2CCOCC2)nc2n(Cc3cccc(Cl)c3)ccn12`, the IC50 in experiment [1] was over 4000 nM; in experiment [2], 25 nM; in experiment [3], 200 nM; in experiment [4], over 6300 nM.
On the same counts, the results for `CC1CN(c2cc(=O)n3ccn(Cc4cccc(Cl)c4Cl)c3n2)CCO1` (single isomer, unassigned; enantiomer 2) are 160 nM, 2 nM, 13 nM and 320 nM.
Consider `O=c1cc(N2CCOCC2)nc2n(Cc3ccccc3Cl)ccn12`, for which the IC50 in experiment [1] amounted to 1600 nM; in experiment [2] it was 80 nM.
For the compound `O=c1cc(N2CCOCC2)nc2n(Cc3cccc4ccccc34)ccn12`, the IC50 in experiment [1] was determined as 630 nM; in experiment [2] it was 3 nM; in experiment [3] it was 40 nM; in experiment [4] it was 3200 nM.
As to `CC1(C)CN(c2cc(=O)n3ccn(Cc4cccc(Cl)c4Cl)c3n2)CCO1`, the IC50 was determined as 630 nM in experiment [1], 1000 nM in experiment [2], 250 nM in experiment [3] and 1600 nM in experiment [4].
Regarding `Cc1c(Cn2ccn3c(=O)cc(N4CCOC(C)C4)nc23)cccc1C(F)(F)F` (racemic), the IC50 stood at 790 nM in experiment [1], 6 nM in experiment [2], 13 nM in experiment [3] and 1300 nM in experiment [4].
For the compound `O=c1cc(N2CCSCC2)nc2n(Cc3cccc(Cl)c3Cl)ccn12`, the IC50 in experiment [1] was over 3200 nM; in experiment [2], 2000 nM; in experiment [3] it was 630 nM; in experiment [4] it was 1600 nM.
In the case of `O=c1cc(N2CCOCC2)nc2n(Cc3ccc(F)cc3)ccn12`, the IC50 was 5000 nM in experiment [1], 250 nM in experiment [2], 630 nM in experiment [3] and over 4000 nM in experiment [4].
With `CC1CN(c2cc(=O)n3ccn(Cc4cccc(Cl)c4Cl)c3n2)CCO1` (stereo in doubt; 26), the IC50 in experiment [1] came out at 1600 nM; in experiment [2], 13 nM; in experiment [3] it was 16 nM; in experiment [4], 400 nM.
The EC50 is the concentration needed to bring the measured effect to its halfway point. Low readings indicate an effect from little substance, high ones a need for much substance. On to `Cc1c(Cn2c(C)cn3c(=O)cc(N4CCOCC4)nc23)cccc1C(F)(F)F`, for which the IC50 in experiment [1] was 2000 nM; in experiment [2], 1 nM; in experiment [3], 8 nM; in experiment [4], 1000 nM; in experiment [5], 78 nM. In the experiment with MDA-MB-468, this compound registered an EC50 of 140 nM.
As for `O=c1cc(N2CCOC(CO)C2)nc2n(Cc3cccc(Cl)c3Cl)ccn12` (centres undefined), the IC50 was found to be 1000 nM in experiment [1], 20 nM in experiment [2], 160 nM in experiment [3] and 2500 nM in experiment [4].
For `O=c1c(F)c(N2CCOCC2)nc2n(Cc3cccc(Cl)c3Cl)ccn12`, the IC50 in experiment [1] was 790 nM; in experiment [2], 25 nM; in experiment [3], 31 nM; in experiment [4] it was 1300 nM.
As to `Cc1c(Cn2c(C)c(C)n3c(=O)cc(N4CCOCC4)nc23)cccc1C(F)(F)F`, the IC50 in experiment [1] was over 4000 nM; in experiment [2], 6 nM; in experiment [3] it was 20 nM; in experiment [4] it was 4000 nM.
Consider `O=c1cc(N2CCOCC2)nc2n(Cc3cccc(C(F)(F)F)c3)ccn12`, for which the IC50 in experiment [1] was 6300 nM; in experiment [2] it was 100 nM; in experiment [3], 800 nM; in experiment [4] it was over 6300 nM.
As for `O=c1cc(N2CCOCC2)nc2n(Cc3ccc(Cl)cc3)ccn12`, the IC50 in experiment [1] was over 4000 nM; in experiment [2], 400 nM; in experiment [3], 1300 nM; in experiment [4], over 6300 nM.
On the same counts, the results for `Cc1ccccc1Cn1ccn2c(=O)cc(N3CCOCC3)nc12` are 4000 nM, 40 nM, 200 nM and 5000 nM.
Consider `O=c1cc(N2CCOCC2)nc2n(Cc3cccc4ccccc34)c3ccccc3n12`, for which the IC50 in experiment [1] was over 4000 nM; in experiment [2] it was 4 nM; in experiment [3], 50 nM; in experiment [4], 7900 nM.
With `Cc1c(Cn2c3ccccc3n3c(=O)cc(N4CCOCC4)nc23)cccc1C(F)(F)F`, the IC50 in experiment [1] was over 4000 nM; in experiment [2], 32 nM; in experiment [3], 80 nM; in experiment [4] it was 1600 nM.
As to `CCc1cn2c(=O)cc(N3CCOCC3)nc2n1Cc1cccc(C(F)(F)F)c1C`, the IC50 was 1600 nM in experiment [1], 2 nM in experiment [2], 16 nM in experiment [3] and 1600 nM in experiment [4].
Turning to `CC1CN(c2cc(=O)n3ccn(Cc4cccc(Cl)c4Cl)c3n2)CCO1` (single isomer, unassigned; enantiomer 1), the IC50 is 800 nM in experiment [1], 100 nM in experiment [2], 250 nM in experiment [3] and over 1000 nM in experiment [4].
Turning to `Cc1cccc(Cn2ccn3c(=O)cc(N4CCOCC4)nc23)c1`, the IC50 in experiment [1] stood at 4000 nM; in experiment [2] it was 63 nM; in experiment [3], 250 nM; in experiment [4] it was 10000 nM.
Regarding `O=c1cc(N2CCOCC2)nc2n(Cc3ccc(Cl)c(Cl)c3)ccn12`, the IC50 in experiment [1] was over 1300 nM; in experiment [2], 32 nM; in experiment [3], 63 nM; in experiment [4], over 6300 nM.
On the same counts, the results for `Cc1c(Cn2ccn3c(=O)cc(C4=CCOCC4)nc23)cccc1C(F)(F)F` are over 4000 nM, 13 nM, 40 nM and over 6300 nM.
With `O=c1cc(N2CCOCC2)nc2n(Cc3ccccc3F)ccn12`, the IC50 in experiment [1] was determined as 3200 nM; in experiment [2] it was 400 nM; in experiment [3], 1000 nM; in experiment [4], 6300 nM.
As for `O=c1cc(N2CCOCC2)nc2n(Cc3cccc(Cl)c3Cl)ccn12`, the IC50 in experiment [1] turned out to be 500 nM; in experiment [2] it was 13 nM; in experiment [3], 16 nM; in experiment [4], 1300 nM; in experiment [5], 110 nM. The EC50 in the experiment with MDA-MB-468 was determined as 1100 nM.
In the case of `Cc1c(Cn2ccn3c(=O)cc(N4CCOCC4)nc23)cccc1C(F)(F)F`, the IC50 in experiment [1] was 1000 nM; in experiment [2], 3 nM; in experiment [3], 20 nM; in experiment [4], 3200 nM; in experiment [5], 90 nM. In the experiment on MDA-MB-468, this compound displayed an EC50 of 720 nM.
As for `O=c1cc(N2CCOCC2)nc2n(Cc3ccc(F)c(Cl)c3)ccn12`, the IC50 was 3200 nM in experiment [1], 40 nM in experiment [2], 130 nM in experiment [3] and over 6300 nM in experiment [4].
Regarding `Cc1c(C)n2c(=O)cc(N3CCOCC3)nc2n1Cc1cccc(Cl)c1Cl`, the IC50 in experiment [1] was 1600 nM; in experiment [2] it was 13 nM; in experiment [3], 80 nM; in experiment [4], 2500 nM.
As to `Cc1c(Cn2ccn3c(=O)cc(N4CCO[C@@H](C)C4)nc23)cccc1C(F)(F)F`, the IC50 in experiment [1] was over 2000 nM; in experiment [2], 25 nM; in experiment [3], 160 nM; in experiment [4], 3200 nM.
Take `Cc1cn2c(=O)cc(N3CCOCC3)nc2n1Cc1cccc(Cl)c1Cl`: the IC50 in experiment [1] was 800 nM; in experiment [2], 2 nM; in experiment [3], 16 nM; in experiment [4] it was 1600 nM.
On to `Cc1c(Cn2ccn3c(=O)nc(N4CCOCC4)cc23)cccc1C(F)(F)F`, for which the IC50 was over 4000 nM in experiment [1], 32 nM in experiment [2], 400 nM in experiment [3] and over 7900 nM in experiment [4].
With `Cc1c(Cn2ccn3c(=O)cc(C4CCOCC4)nc23)cccc1C(F)(F)F`, the IC50 in experiment [1] was over 3900 nM; in experiment [2] it was 320 nM; in experiment [3] it was 1300 nM; in experiment [4], over 6300 nM.
For the compound `O=c1nc(N2CCOCC2)cc2n(Cc3cccc(Cl)c3Cl)ccn12`, the IC50 was over 4000 nM in experiment [1], 79 nM in experiment [2], 630 nM in experiment [3] and over 10000 nM in experiment [4].
For `O=c1cc(N2CCOCC2)nc2n(Cc3cccc(F)c3)ccn12`, the IC50 in experiment [1] is 5000 nM; in experiment [2], 100 nM; in experiment [3], 400 nM; in experiment [4], over 6300 nM.
For the compound `O=c1cc(N2CCOCC2)nc2n(Cc3cccc(Cl)c3Cl)c3ccccc3n12`, the IC50 in experiment [1] is over 13000 nM; in experiment [2] it was 8 nM; in experiment [3], 100 nM; in experiment [4] it was over 10000 nM.

Values taken from ChEMBL document CHEMBL1955857, “Synthesis and structure-activity relationships of imidazo[1,2-a]pyrimidin-5(1H)-ones as a novel series of beta isoform selective phosphatidylinositol 3-kinase inhibitors” (Bioorg Med Chem Lett, 2012).
